Test results: ChEMBL document CHEMBL5154688, “Design, Synthesis, and Characterization of I-BET567, a Pan-Bromodomain and Extra Terminal (BET) Bromodomain Oral Candidate” (J Med Chem, 2022)
Values after ≈ are worked out from the molar mass of the structure shown.

Key:
[1] = Artificial membrane permeability of the compound; type: ADME; conditions: PAMPA; read-out: permeability
[2] = target: T1, Bromodomain-containing protein 4 (Homo sapiens, UniProt O60885); assay: Inhibition of BRD4 BD2 (unknown origin) incubated for 30 mins in presence of fluorescent ligand by TR-FRET method
[3] = target: T1, Bromodomain-containing protein 4; assay: Inhibition of BRD4 BD1 (unknown origin) incubated for 30 mins in presence of fluorescent ligand by TR-FRET method
[4] = Solubility of the compound at pH 6.5 in fast state simulated intestinal fluid incubated for 16 hrs by HPLC analysis; type: physicochemical; conditions: fasted state simulated intestinal fluid (FaSSIF)
[5] = target: Cytochrome P450 3A4 (Homo sapiens, UniProt P08684); assay: Inhibition of CYP3A4 (unknown origin); type: ADME
[6] = target: Voltage-gated inwardly rectifying potassium channel KCNH2 (Homo sapiens, UniProt Q12809); assay: Inhibition of hERG; type: toxicity
[7] = target: C-C motif chemokine 2 (Homo sapiens, UniProt P13500); assay: Inhibition of MCP-1 in LPS-stimulated human whole blood incubate for 24 hrs by immuno assay; type: tissue-based
[8] = Solubility of the compound in saline by CLND method; type: physicochemical
[9] = Intrinsic clearance in dog hepatocytes incubated upto 45 mins by LC-MS/MS analysis; type: ADME, cell-based, Canis lupus familiaris, Hepatocyte; conditions: 0.75 h
[10] = Intrinsic clearance in rat hepatocytes after 60 mins by LC-MS/MS analysis; type: ADME, cell-based, Hepatocyte; conditions: 1 h
[11] = Intrinsic clearance in human hepatocytes measured after 120 mins by LC-MS/MS analysis; type: ADME, cell-based, Hepatocyte; conditions: 2 h

Sequence of C-C motif chemokine 2 (P13500 whole entry): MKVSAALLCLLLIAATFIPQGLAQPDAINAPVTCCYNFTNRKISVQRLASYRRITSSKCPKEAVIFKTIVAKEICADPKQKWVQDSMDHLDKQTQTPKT
Sequence of Voltage-gated inwardly rectifying potassium channel KCNH2 (Q12809 whole entry): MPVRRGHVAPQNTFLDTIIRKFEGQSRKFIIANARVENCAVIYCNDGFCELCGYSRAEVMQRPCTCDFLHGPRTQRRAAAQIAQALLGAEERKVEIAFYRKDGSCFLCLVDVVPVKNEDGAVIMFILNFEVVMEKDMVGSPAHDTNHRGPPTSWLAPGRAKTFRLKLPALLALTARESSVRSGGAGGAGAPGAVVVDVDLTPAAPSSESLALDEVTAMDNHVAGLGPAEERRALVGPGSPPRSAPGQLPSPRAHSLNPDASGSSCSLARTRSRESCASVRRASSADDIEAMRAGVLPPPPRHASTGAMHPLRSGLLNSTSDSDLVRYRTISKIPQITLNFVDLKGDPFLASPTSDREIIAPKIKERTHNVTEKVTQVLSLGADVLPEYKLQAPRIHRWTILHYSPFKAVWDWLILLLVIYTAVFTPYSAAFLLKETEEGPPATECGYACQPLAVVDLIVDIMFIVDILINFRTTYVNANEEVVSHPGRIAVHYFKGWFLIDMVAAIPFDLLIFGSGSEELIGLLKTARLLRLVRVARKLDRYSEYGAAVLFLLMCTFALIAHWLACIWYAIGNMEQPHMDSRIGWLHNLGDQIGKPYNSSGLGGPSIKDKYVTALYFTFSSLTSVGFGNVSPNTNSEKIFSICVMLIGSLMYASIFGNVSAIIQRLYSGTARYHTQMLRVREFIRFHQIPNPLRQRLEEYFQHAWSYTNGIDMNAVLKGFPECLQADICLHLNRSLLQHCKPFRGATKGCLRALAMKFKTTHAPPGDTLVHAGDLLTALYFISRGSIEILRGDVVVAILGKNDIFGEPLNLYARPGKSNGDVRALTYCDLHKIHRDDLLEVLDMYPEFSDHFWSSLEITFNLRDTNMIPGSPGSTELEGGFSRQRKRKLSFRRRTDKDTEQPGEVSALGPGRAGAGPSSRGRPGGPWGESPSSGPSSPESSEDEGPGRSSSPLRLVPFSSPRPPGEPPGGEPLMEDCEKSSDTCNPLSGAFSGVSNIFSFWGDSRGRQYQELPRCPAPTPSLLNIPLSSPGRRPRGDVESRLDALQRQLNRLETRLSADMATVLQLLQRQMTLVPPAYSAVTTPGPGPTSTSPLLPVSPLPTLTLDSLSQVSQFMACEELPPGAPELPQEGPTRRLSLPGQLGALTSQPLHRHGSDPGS
Sequence of Cytochrome P450 3A4 (P08684 whole entry): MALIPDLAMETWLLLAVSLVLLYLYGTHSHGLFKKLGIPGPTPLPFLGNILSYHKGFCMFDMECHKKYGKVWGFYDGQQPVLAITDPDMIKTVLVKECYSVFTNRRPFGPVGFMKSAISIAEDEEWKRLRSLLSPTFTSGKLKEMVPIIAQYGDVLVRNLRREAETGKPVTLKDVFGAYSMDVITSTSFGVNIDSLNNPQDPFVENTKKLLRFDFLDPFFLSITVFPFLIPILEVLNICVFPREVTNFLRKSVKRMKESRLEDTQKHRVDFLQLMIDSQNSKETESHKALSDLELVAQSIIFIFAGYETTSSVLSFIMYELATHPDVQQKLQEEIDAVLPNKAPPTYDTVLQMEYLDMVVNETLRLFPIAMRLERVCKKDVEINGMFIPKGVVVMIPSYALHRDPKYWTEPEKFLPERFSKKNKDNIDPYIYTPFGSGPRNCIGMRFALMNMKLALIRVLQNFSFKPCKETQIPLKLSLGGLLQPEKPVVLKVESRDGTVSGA

Compound | Papp [1] | IC50 [2] | IC50 [3] | solubility at 16 h [4] | IC50 [5] | IC50 [6] | IC50 [7] | solubility kinetic [8] | CLH [9] | CLH [10] | CLH [11]
CCNC(=O)c1ccc2c(c1)[C@H](Nc1ccc(Cl)cn1)C[C@H](C)N2C(C)=O | 35 ×10⁻⁶ cm/s | 79.4 nM | 316 nM | 90 µg/mL (≈ 233 µM) |  |  |  |  |  |  | 
CC(=O)N1c2ccccc2[C@H](Nc2cnc(C)cn2)C[C@@H]1C | 54 ×10⁻⁶ cm/s | 501 nM | 1000 nM | 270 µg/mL (≈ 911 µM) |  |  |  |  |  |  | 
CC(=O)N1c2ccc(F)cc2[C@H](Nc2cnc(C)cn2)C[C@@H]1C | 52 ×10⁻⁶ cm/s | 631 nM | 1260 nM | > 1000 µg/mL |  |  |  |  |  |  | 
CC(=O)N1c2ccc(C(N)=O)cc2[C@H](Nc2cccc(Cl)c2)C[C@@H]1C | 40 ×10⁻⁶ cm/s | 20 nM | 200 nM | 33 µg/mL (≈ 92.2 µM) |  |  |  |  |  |  | 
CCNC(=O)c1ccc2c(c1)[C@H](Nc1ncc(Cl)cn1)C[C@H](C)N2C(C)=O | < 18 ×10⁻⁶ cm/s | 79.4 nM | 100 nM | 82 µg/mL (≈ 211 µM) |  |  |  |  |  |  | 
CC(=O)N1c2ccc(C(N)=O)cc2[C@H](Nc2ccc(Cl)cn2)C[C@@H]1C | 15 ×10⁻⁶ cm/s | 79.4 nM | 251 nM | 884 µg/mL (≈ 2460 µM) | > 39800 nM | > 50100 nM | 398 nM |  |  |  | 
CC(=O)N1c2ccc(F)cc2[C@H](Nc2ccc(C#N)cn2)C[C@@H]1C | 51 ×10⁻⁶ cm/s | 316 nM | 794 nM | 558 µg/mL (≈ 1720 µM) |  |  |  |  |  |  | 
CC(=O)N1c2ccc(C(N)=O)cc2[C@H](Nc2ccc(C)cn2)C[C@@H]1C | 8.2 ×10⁻⁶ cm/s | 158 nM | 794 nM |  |  |  |  | ≥ 143 µg/mL |  |  | 
CCNC(=O)c1ccc2c(c1)[C@H](Nc1ccc(C#N)cn1)C[C@H](C)N2C(C)=O | 4.6 ×10⁻⁶ cm/s | 100 nM | 200 nM | > 1000 µg/mL | > 39800 nM | > 50100 nM | 251 nM |  | < 1.26 mL/min/g | 4.3 mL/min/g | < 0.87 mL/min/g
CCNC(=O)c1ccc2c(c1)[C@H](Nc1ccc(F)cn1)C[C@H](C)N2C(C)=O | 23 ×10⁻⁶ cm/s | 158 nM | 794 nM |  |  |  |  | ≥ 126 µg/mL |  |  | 
CCNC(=O)c1ccc2c(c1)[C@H](Nc1ccc(C)cn1)C[C@H](C)N2C(C)=O | 25 ×10⁻⁶ cm/s | 158 nM | 794 nM | 44 µg/mL (≈ 120 µM) |  |  |  |  |  |  | 
CC(=O)N1c2ccc(F)cc2[C@H](Nc2cnc(C#N)cn2)C[C@@H]1C | 30 ×10⁻⁶ cm/s | 1000 nM | 1260 nM |  |  |  |  | 99 µg/mL (≈ 304 µM) |  |  | 
CCNC(=O)c1ccc2c(c1)[C@H](Nc1cnc(C#N)cn1)C[C@H](C)N2C(C)=O | 0.3 ×10⁻⁶ cm/s | 1000 nM | 501 nM |  |  |  |  | ≥ 73 µg/mL |  |  | 
CC(=O)N1c2ccc(C#N)cc2[C@H](Nc2cnc(C#N)cn2)C[C@@H]1C | 19 ×10⁻⁶ cm/s | 501 nM | 501 nM | 60 µg/mL (≈ 181 µM) |  |  |  |  |  |  | 
CC(=O)N1c2ccccc2[C@H](Nc2cnc(C#N)cn2)C[C@@H]1C | 32 ×10⁻⁶ cm/s | 1260 nM | 1260 nM | 955 µg/mL (≈ 3110 µM) |  |  |  |  |  |  | 
CC(=O)N1c2ccccc2[C@H](Nc2ccc(C#N)cn2)C[C@@H]1C | 48 ×10⁻⁶ cm/s | 316 nM | 1000 nM | 533 µg/mL (≈ 1740 µM) |  |  |  |  |  |  | 
CC(=O)N1c2ccc(C#N)cc2[C@H](Nc2ccc(C#N)cn2)C[C@@H]1C | 31 ×10⁻⁶ cm/s | 158 nM | 501 nM | 279 µg/mL (≈ 842 µM) |  |  |  |  |  |  | 
